This assay has as its target USP19 (Homo sapiens (Human), UniProt O94966). The assay is described as follows: USP19 activity assay (fluorescence polarisation, Ubiquitin-Lys-TAMRA substrate). The assay is classed as biochemical. The settings on record: full-length USP19 2.5 nM, 30 min pre-incubation, Ub substrate 500 nM; average of at least two duplicate experiments. On the technique in general: Polarisation of emitted light reports the rotation of a fluorescent probe.
Chain of USP19 (O94966 whole entry): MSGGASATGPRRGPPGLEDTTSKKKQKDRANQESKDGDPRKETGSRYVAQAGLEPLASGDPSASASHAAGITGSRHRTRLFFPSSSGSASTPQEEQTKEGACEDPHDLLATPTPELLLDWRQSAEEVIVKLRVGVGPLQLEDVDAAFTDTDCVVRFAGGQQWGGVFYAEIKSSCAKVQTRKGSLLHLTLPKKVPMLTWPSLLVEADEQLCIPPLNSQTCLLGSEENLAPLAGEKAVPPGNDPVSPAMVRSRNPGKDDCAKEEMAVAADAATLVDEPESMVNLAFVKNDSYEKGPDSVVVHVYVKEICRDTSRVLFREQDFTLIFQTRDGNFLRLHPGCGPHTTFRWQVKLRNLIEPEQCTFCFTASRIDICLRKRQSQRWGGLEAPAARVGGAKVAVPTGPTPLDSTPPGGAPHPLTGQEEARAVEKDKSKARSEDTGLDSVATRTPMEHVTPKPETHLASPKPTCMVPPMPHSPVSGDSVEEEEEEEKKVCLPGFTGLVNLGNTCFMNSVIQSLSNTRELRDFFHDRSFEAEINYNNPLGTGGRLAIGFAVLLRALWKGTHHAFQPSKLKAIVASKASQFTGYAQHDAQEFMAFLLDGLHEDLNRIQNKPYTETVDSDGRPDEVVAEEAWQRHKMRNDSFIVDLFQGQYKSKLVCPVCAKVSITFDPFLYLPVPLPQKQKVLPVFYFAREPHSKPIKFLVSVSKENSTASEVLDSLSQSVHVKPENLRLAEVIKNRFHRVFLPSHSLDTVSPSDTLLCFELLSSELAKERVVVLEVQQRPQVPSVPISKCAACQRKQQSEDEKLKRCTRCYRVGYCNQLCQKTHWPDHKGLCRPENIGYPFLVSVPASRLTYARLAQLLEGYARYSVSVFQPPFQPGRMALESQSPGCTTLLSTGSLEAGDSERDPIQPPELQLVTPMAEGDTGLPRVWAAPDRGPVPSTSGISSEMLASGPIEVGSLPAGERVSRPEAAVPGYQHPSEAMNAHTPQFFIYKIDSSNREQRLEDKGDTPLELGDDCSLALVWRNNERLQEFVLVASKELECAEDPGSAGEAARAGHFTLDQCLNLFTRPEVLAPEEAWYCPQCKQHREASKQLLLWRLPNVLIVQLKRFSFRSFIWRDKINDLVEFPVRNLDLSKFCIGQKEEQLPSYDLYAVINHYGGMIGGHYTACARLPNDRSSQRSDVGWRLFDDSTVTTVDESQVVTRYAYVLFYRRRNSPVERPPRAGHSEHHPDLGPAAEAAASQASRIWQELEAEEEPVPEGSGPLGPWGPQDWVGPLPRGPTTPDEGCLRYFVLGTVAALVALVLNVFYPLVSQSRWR
Turning to `CC(C)N(C)C(=O)c1cn(CC2(O)CCN(C(=O)[C@H](C)CC3CCCCC3)CC2)c(=O)cc1-c1ccccc1` [Example 87, (R)-1-((1-(3-Cyclohexyl-2-methylpropanoyl)-4-hydroxypiperidin-4-yl)methyl)-N-isopropyl-N-methyl-6-oxo-4-phenyl-1,6-dihydropyridine-3-carboxamide], the IC50 – broadly, the point on the concentration scale where inhibition reaches its midpoint – was in the range of 0.5 to 5 µM.

`C[C@H](CC(=O)N1CCC(O)(Cn2cc(C(=O)N3CCCCC3)c(-c3ccccc3)cc2=O)CC1)c1ccccc1` [Example 88, (R)-1-((4-Hydroxy-1-(3-phenylbutanoyl)piperidin-4-yl)methyl)-4-phenyl-5-(piperidine-1-carbonyl)pyridin-2(1H)-one]: the IC50 lay within 0.5 to 5 µM.

As for `COc1ccccc1-c1cc(=O)n(CC2(O)CCN(C(=O)C[C@@H](C)c3ccccc3)CC2)cc1C(=O)N(C)C(C)C` [Example 89, (R)-1-((4-Hydroxy-1-(3-phenylbutanoyl)piperidin-4-yl)methyl)-N-isopropyl-4-(2-methoxyphenyl)-N-methyl-6-oxo-1,6-dihydropyridine-3-carboxamide], the IC50 was in the range of 0.5 to 5 µM. Next, `CC(C)N(C)C(=O)c1cn(CC2(O)CCN(C(=O)C[C@@H](C)c3ccccc3)CC2)c(=O)cc1-c1ccccc1F` [Example 90, (R)-4-(2-Fluorophenyl)-1-((4-hydroxy-1-(3-phenylbutanoyl)piperidin-4-yl)methyl)-N-isopropyl-N-methyl-6-oxo-1,6-dihydropyridine-3-carboxamide]: 0.5 to 5 µM.

As to `C[C@H](CC(=O)N1CCC(O)(Cn2cc(-c3ccccn3)c(-c3ccccc3)cc2=O)CC1)c1ccccc1` [Example 91, (R)-1′-((4-Hydroxy-1-(3-phenylbutanoyl)piperidin-4-yl)methyl)-4′-phenyl-[2,3′-bipyridin]-6′(1′H)-one], the IC50 fell in the range of 0.5 to 5 µM. On to `CC(C)N(C)C(=O)c1cn(CC2(O)CCN(C(=O)CCC3CCCCC3)CC2)c(=O)cc1-c1ccccc1` [Example 92, 1-((1-(3-Cyclohexylpropanoyl)-4-hydroxypiperidin-4-yl)methyl)-N-isopropyl-N-methyl-6-oxo-4-phenyl-1,6-dihydropyridine-3-carboxamide], for which the IC50 was 0.5 to 5 µM. In the case of `C[C@H](CC(=O)N1CCC(O)(Cn2cc(C(=O)N3CCN(C(=O)OC(C)(C)C)CC3)c(-c3ccccc3)cc2=O)CC1)c1ccccc1` [Example 93, (R)-tert-Butyl 4-(1-((4-hydroxy-1-(3-phenylbutanoyl)piperidin-4-yl)methyl)-6-oxo-4-phenyl-1,6-dihydropyridine-3-carbonyl)piperazine-1-carboxylate], the half-maximal inhibitory concentration (IC50) is 5 to 50 µM.

For the compound `C[C@H](CC(=O)N1CCC(O)(Cn2cc(C(=O)N3CCNCC3)c(-c3ccccc3)cc2=O)CC1)c1ccccc1` [Example 94, (R)-1-((4-Hydroxy-1-(3-phenylbutanoyl)piperidin-4-yl)methyl)-4-phenyl-5-(piperazine-1-carbonyl)pyridin-2(1H)-one], the half-inhibitory concentration (IC50) is 0.5 to 5 µM.

Consider `C[C@H](CC(=O)N1CCC(O)(Cn2cc(C(=O)N(C)C)c(-c3ccccc3)cc2=O)CC1)c1ccccc1` [Example 95, (R)-1-((4-Hydroxy-1-(3-phenylbutanoyl)piperidin-4-yl)methyl)-N,N-dimethyl-6-oxo-4-phenyl-1,6-dihydropyridine-3-carboxamide], for which the IC50 fell in the range of 5 to 50 µM. Next, `Cc1ccc(-c2cc(=O)n(CC3(O)CCN(C(=O)C[C@@H](C)c4ccccc4)CC3)cc2C(=O)N(C)C(C)C)cc1` [Example 96, (R)-1-((4-Hydroxy-1-(3-phenylbutanoyl)piperidin-4-yl)methyl)-N-isopropyl-N-methyl-6-oxo-4-(p-tolyl)-1,6-dihydropyridine-3-carboxamide]: 5 to 50 µM; `CON(C)C(=O)c1cn(CC2(O)CCN(C(=O)C[C@@H](C)c3ccccc3)CC2)c(=O)cc1-c1ccccc1` [Example 97, (R)-1-((4-Hydroxy-1-(3-phenylbutanoyl)piperidin-4-yl)methyl)-N-methoxy-N-methyl-6-oxo-4-phenyl-1,6-dihydropyridine-3-carboxamide]: 5 to 50 µM; `C[C@H](CC(=O)N1CCC(O)(Cn2cc(-c3ccccc3)c(-c3ccccc3)cc2=O)CC1)c1ccccc1` [Example 98, (R)-1-((4-Hydroxy-1-(3-phenylbutanoyl)piperidin-4-yl)methyl)-4,5-diphenylpyridin-2(1H)-one]: 5 to 50 µM. For `C[C@H](CC(=O)N1CCC(O)(Cn2cc(-c3cccnc3)c(-c3ccccc3)cc2=O)CC1)c1ccccc1` [Example 99, (R)-1-((4-Hydroxy-1-(3-phenylbutanoyl)piperidin-4-yl)methyl)-4-phenyl-[3,3′-bipyridin]-6(1H)-one], the IC50 was 5 to 50 µM.

Consider `C[C@H](CC(=O)N1CCC(O)(Cn2cc(-c3cccc(CN)c3)c(-c3ccccc3)cc2=O)CC1)c1ccccc1` [Example 100, (R)-5-(3-(Aminomethyl)phenyl)-1-((4-hydroxy-1-(3-phenylbutanoyl)piperidin-4-yl)methyl)-4-phenylpyridin-2(1H)-one], for which the IC50 fell in the range of 5 to 50 µM.

For `CC(C)N(C)C(=O)c1cn(CC2(O)CCN(C(=O)C[C@@H](C)c3ccccc3)CC2)c(=O)cc1-c1ccccc1` [Example 101, (R)-1-((4-Hydroxy-1-(3-phenylbutanoyl)piperidin-4-yl)methyl)-N-isopropyl-N-methyl-6-oxo-4-phenyl-1,6-dihydropyridine-3-carboxamide], the IC50 fell in the range of 5 to 50 µM. Next, `Cc1cccc(-c2cc(=O)n(CC3(O)CCN(C(=O)C[C@@H](C)c4ccccc4)CC3)cc2C(=O)N(C)C(C)C)c1` [Example 102, (R)-1-((4-Hydroxy-1-(3-phenylbutanoyl)piperidin-4-yl)methyl)-N-isopropyl-N-methyl-6-oxo-4-(m-tolyl)-1,6-dihydropyridine-3-carboxamide]: 0.5 to 5 µM; `C[C@H](CC(=O)N1CCC(O)(Cn2cc(-c3cncnc3)c(-c3ccccc3)cc2=O)CC1)c1ccccc1` [Example 103, (R)-1-((4-Hydroxy-1-(3-phenylbutanoyl)piperidin-4-yl)methyl)-4-phenyl-5-(pyrimidin-5-yl)pyridin-2(1H)-one]: 5 to 50 µM; `C[C@H](CC(=O)N1CCC(O)(Cn2cc(C(=O)NCC3CC3)c(-c3ccccc3)cc2=O)CC1)c1ccccc1` [Example 104, (R)—N-(Cyclopropylmethyl)-1-((4-hydroxy-1-(3-phenylbutanoyl)piperidin-4-yl)methyl)-6-oxo-4-phenyl-1,6-dihydropyridine-3-carboxamide]: 5 to 50 µM. For `C[C@H](CC(=O)N1CCC(O)(Cn2cc(C(=O)N(C)Cc3ccccc3)c(-c3ccccc3)cc2=O)CC1)c1ccccc1` [Example 105, (R)—N-Benzyl-1-((4-hydroxy-1-(3-phenylbutanoyl)piperidin-4-yl)methyl)-N-methyl-6-oxo-4-phenyl-1,6-dihydropyridine-3-carboxamide] the value was 5 to 50 µM; for `C[C@H](CC(=O)N1CCC(O)(Cn2cc(-c3ccccc3C#N)c(-c3ccccc3)cc2=O)CC1)c1ccccc1` [Example 106, (R)-2-(1-((4-Hydroxy-1-(3-phenylbutanoyl)piperidin-4-yl)methyl)-6-oxo-4-phenyl-1,6-dihydropyridin-3-yl)benzonitrile], 5 to 50 µM. For `C[C@H](CC(=O)N1CCC(O)(Cn2cc(C(=O)N(C)c3ccccc3)c(-c3ccccc3)cc2=O)CC1)c1ccccc1` [Example 107, (R)-1-((4-Hydroxy-1-(3-phenylbutanoyl)piperidin-4-yl)methyl)-N-methyl-6-oxo-N,4-diphenyl-1,6-dihydropyridine-3-carboxamide] the value was 5 to 50 µM; for `CC(n1cnc(-c2ccccc2)cc1=O)C1(O)CCN(C(=O)[C@H](C)CC2CCCCC2)CC1` (stereo partly drawn) [Example 108, 3-(1-(1-((R)-3-Cyclohexyl-2-methylpropanoyl)-4-hydroxypiperidin-4-yl)ethyl)-6-phenylpyrimidin-4(3H)-one], 0.5 to 5 µM.

For the compound `C[C@H](CC(=O)N1CCC(O)(Cn2cc(-c3cnn(C)c3)c(-c3ccccc3)cc2=O)CC1)c1ccccc1` [Example 109, (R)-1-((4-Hydroxy-1-(3-phenylbutanoyl)piperidin-4-yl)methyl)-5-(1-methyl-1H-pyrazol-4-yl)-4-phenylpyridin-2(1H)-one], the IC50 was in the range of 50 to 250 µM.

For `C=CC[C@H](CC1CCCCC1)C(=O)N1CCC(O)(Cn2cnc(-c3ccccc3F)cc2=O)CC1` [Example 110, (R)-3-((1-(2-(Cyclohexylmethyl)pent-4-enoyl)-4-hydroxypiperidin-4-yl)methyl)-6-(2-fluorophenyl)pyrimidin-4(3H)-one], the IC50 is 0.5 to 5 µM. For `Cc1cn(CC2(O)CCN(C(=O)C[C@@H](C)c3ccccc3)CC2)c(=O)cc1-c1ccccc1` [Example 111, (R)-1-((4-Hydroxy-1-(3-phenylbutanoyl)piperidin-4-yl)methyl)-5-methyl-4-phenylpyridin-2(1H)-one] the value was 50 to 250 µM. Next, `Cc1c(-c2cc(=O)n(CC3(O)CCN(C(=O)C[C@@H](C)c4ccccc4)CC3)cn2)cnn1C` [Example 112, (R)-6-(1,5-Dimethyl-1H-pyrazol-4-yl)-3-((4-hydroxy-1-(3-phenylbutanoyl)piperidin-4-yl)methyl)pyrimidin-4(3H)-one]: 50 to 250 µM; `O=C(CCC1CCCCC1)N1C[C@H]2CC[C@@H](C1)C2(O)Cn1cnc(-c2ccccc2F)cc1=O` (stereo partly drawn) [Example 113, 3-(((1R,5S)-3-(3-Cyclohexylpropanoyl)-8-hydroxy-3-azabicyclo[3.2.1]octan-8-yl)methyl)-6-(2-fluorophenyl)pyrimidin-4(3H)-one]: 50 to 250 µM; `C[C@H](CC(=O)N1CCC(O)(Cn2cc(C#N)c(-c3ccccc3)cc2=O)CC1)c1ccccc1` [Example 114, (R)-1-((4-Hydroxy-1-(3-phenylbutanoyl)piperidin-4-yl)methyl)-6-oxo-4-phenyl-1,6-dihydropyridine-3-carbonitrile]: 5 to 50 µM. Consider `C[C@H](CC(=O)N1CCC(O)(Cn2cc(C(=O)NCCO)c(-c3ccccc3)cc2=O)CC1)c1ccccc1` [Example 115, (R)-1-((4-Hydroxy-1-(3-phenylbutanoyl)piperidin-4-yl)methyl)-N-(2-hydroxyethyl)-6-oxo-4-phenyl-1,6-dihydropyridine-3-carboxamide], for which the IC50 lay in the range of 5 to 50 µM.

These data come from patent publication US11053213B2, “Pharmaceutical compounds” (ALMAC DISCOVERY LIMITED, priority 2016, dated 2021).
